The target in data set [1] is T1, Serotonin 3 (5-HT3) receptor (Rattus norvegicus, UniProt P35563+Q9JJ16).
T1 sequence (P35563 whole entry): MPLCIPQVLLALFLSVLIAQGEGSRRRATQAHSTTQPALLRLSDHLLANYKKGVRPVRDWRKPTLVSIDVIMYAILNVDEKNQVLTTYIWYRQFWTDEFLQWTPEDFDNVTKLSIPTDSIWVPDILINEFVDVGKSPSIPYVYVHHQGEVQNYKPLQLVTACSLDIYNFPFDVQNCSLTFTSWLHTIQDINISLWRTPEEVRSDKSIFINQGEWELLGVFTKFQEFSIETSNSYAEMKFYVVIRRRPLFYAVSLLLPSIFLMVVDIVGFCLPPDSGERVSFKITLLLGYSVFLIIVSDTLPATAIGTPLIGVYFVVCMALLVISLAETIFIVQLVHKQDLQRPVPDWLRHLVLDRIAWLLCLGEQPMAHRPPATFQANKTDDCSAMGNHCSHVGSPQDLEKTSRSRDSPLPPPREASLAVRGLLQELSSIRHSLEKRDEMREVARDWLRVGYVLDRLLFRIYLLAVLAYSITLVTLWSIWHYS
T1 sequence (Q9JJ16 whole entry): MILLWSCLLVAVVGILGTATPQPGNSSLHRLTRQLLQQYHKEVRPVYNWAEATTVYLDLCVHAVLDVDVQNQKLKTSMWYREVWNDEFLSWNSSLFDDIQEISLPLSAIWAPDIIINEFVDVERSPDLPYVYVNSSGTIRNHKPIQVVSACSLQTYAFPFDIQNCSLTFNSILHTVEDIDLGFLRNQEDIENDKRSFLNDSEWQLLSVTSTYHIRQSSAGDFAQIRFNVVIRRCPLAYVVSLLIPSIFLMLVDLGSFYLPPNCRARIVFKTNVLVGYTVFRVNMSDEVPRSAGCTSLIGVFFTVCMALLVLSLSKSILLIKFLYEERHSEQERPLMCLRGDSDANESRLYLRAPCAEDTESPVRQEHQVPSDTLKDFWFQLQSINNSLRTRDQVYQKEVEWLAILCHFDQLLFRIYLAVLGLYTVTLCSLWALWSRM
Kind of data set: Inhibition of [3H]-Q-ICS 205-930 binding to rat cortex homogenate 5-hydroxytryptamine 3 receptor.

The species named for the next data set is Oryctolagus cuniculus. In words: Functional activity was determined by the contraction of New Zealand white rabbit saphenous vein.
The target of data set [2] is T2, 5-HT2C receptors (Sus scrofa, UniProt K7GSR7). In words: Binding activity against 5-hydroxytryptamine 2C receptor from pig cortex membrane using [3H]mesulergine as radioligand.
Data set [3] in a line: Partition coefficient (logD7.4). As to conditions: octanol/water, pH 7.4.
The target of data set [4] is T1, Serotonin 3 (5-HT3) receptor. Kind of data set: Binding activity radioligand. Type of data set: protein-complex assay.
Data set [5] has as its target Serotonin 3 (5-HT3) receptor. Kind of data set: Binding activity against 5-hydroxytryptamine 1A receptor from human brain cortex using [3H]8-OH-DPAT[…] radioligand.
A short description of data set [6]: Binding activity against 5-hydroxytryptamine 2C receptor from pig cortex membrane using [3H]mesulergine as radioligand.
For data set [7], the target named is 5-hydroxytryptamine receptor 1D (Sus scrofa, UniProt P79400). Kind of data set: Binding activity against 5-hydroxytryptamine 1D receptor from pig caudate membrane using [3H]5-HT as radioligand.
Data set [8] has as its target T2, 5-HT2C receptors. In words: Binding activity against 5-hydroxytryptamine 2C receptor from pig cortex membrane using [3H]mesulergine as radioligand; NA Not Available.

Sequence of 5-hydroxytryptamine receptor 1D (P79400 whole entry): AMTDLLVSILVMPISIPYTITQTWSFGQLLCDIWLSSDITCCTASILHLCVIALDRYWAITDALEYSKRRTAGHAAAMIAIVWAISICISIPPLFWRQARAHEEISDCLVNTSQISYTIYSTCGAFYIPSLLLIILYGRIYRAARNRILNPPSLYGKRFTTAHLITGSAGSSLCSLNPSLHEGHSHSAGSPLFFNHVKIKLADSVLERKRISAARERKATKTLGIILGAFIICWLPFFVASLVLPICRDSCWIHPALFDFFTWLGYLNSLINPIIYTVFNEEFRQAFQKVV

Take `CN(C)CCc1c[nH]c2ccc(Cc3nnn(C)n3)cc12`: the IC50 (in [1]; at 5-HT2C receptors [2]) was 2510 nM in each case. Further, the midpoint of the response in the data set filed under Oryctolagus cuniculus, the EC50, lay at 1000 nM.

As to `CN(C)CCc1c[nH]c2ccc(-n3cncn3)cc12`, the IC50 (in [1]; on 5-HT2C receptors [2]) was 10000 nM each time. Moreover, the EC50 (as a rule, the midpoint of the concentration-response curve) in the data set filed under Oryctolagus cuniculus was 63.1 nM.

For the compound `CN(C)CCc1c[nH]c2ccc(Cn3cncn3)cc12` [RIZATRIPTAN], in data set [3], the logD (usually lipophilicity at a set pH, counting ionised and neutral species) was -0.74. Moreover, the EC50 in the data set filed under Oryctolagus cuniculus was 251 nM. The figures for the IC50 (at 5-HT2C receptors [2]; in [4]) were 6310 nM and 3980 nM, respectively. Also, the pIC50 (usually the negative decadic logarithm of the IC50, by convention in mol/L) in [5] is given as below 5.

Turning to `CN(C)CCc1c[nH]c2ccc(Cc3nnnn3C)cc12`, the figures for the IC50 (in data set [1]; at 5-HT2C receptors [2]) were 5010 nM and above 10000 nM, respectively. In addition, a half-maximal response in the data set listed under Oryctolagus cuniculus (EC50) required 251 nM.

Regarding `CN(C)CCc1c[nH]c2ccc(Cc3nncn3C)cc12`, the IC50 (in general, the concentration that inhibits the measured activity by half) on 5-HT2C receptors [2] was above 10000 nM.

As for `CCn1nnc(Cc2ccc3[nH]cc(CCN(C)C)c3c2)n1`, the results for the IC50 (in data set [1]; at 5-HT2C receptors [2]) were 2510 nM and 1580 nM, respectively. The same compound showed an EC50 in the data set listed under Oryctolagus cuniculus of 631 nM.

Regarding `CCn1nnnc1Cc1ccc2[nH]cc(CCN(C)C)c2c1`, the IC50 (in [1]; at 5-HT2C receptors [2]) was above 10000 nM each time. The compound further gave an EC50 in the data set filed under Oryctolagus cuniculus of 398 nM.

As for `CN(C)CCc1c[nH]c2ccc(Cc3nnn[nH]3)cc12`, the IC50 on 5-HT2C receptors [2] was above 10000 nM.

`CN(C)CCc1c[nH]c2ccc(Cc3nc(N)no3)cc12`: the pIC50 in data set [6] worked out at 5.9. The IC50 on 5-HT2C receptors [2] is 398 nM.

With `Cc1nccn1-c1ccc2[nH]cc(CCN(C)C)c2c1`, the IC50 in data set [1] is 3160 nM; on 5-HT2C receptors [2], above 10000 nM. Moreover, the logD in data set [3] was -0.13. Also, a half-maximal effect in the data set listed under Oryctolagus cuniculus (EC50) was put at 158 nM.

`CN(C)CCc1c[nH]c2ccc(Cc3ncn(C)n3)cc12` showed a logD in data set [3] of -1.01. In data set [7], the IC50 was 200 nM.

As for `Cc1nccn1Cc1ccc2[nH]cc(CCN(C)C)c2c1`, the IC50 was 1580 nM in data set [1] and 7940 nM at 5-HT2C receptors [2]. In the data set filed under Oryctolagus cuniculus, this compound showed an EC50 of 631 nM.

Take `CN(C)CCc1c[nH]c2ccc(Cn3nccn3)cc12`: in [3], the logD is -0.2. The same compound showed an IC50 in data set [7] of 251 nM.

For `CN(C)CCc1c[nH]c2ccc(Cn3cnnn3)cc12`, the IC50 was 1260 nM in data set [1] and 5010 nM on 5-HT2C receptors [2]. This compound also had an EC50 in the data set listed under Oryctolagus cuniculus of 200 nM.

As for `CN(C)CCc1c[nH]c2ccc(Cn3ccnc3)cc12`, the results for the IC50 (in data set [1]; on 5-HT2C receptors [2]) were 1260 nM and 3160 nM, respectively. In addition, the logD in data set [3] was -0.53. Also, the EC50 in the data set filed under Oryctolagus cuniculus was 501 nM.

Take `CN(C)CCc1c[nH]c2ccc(Cn3ncnn3)cc12`: the IC50 in [1] is 3160 nM; on 5-HT2C receptors [2] it was 2000 nM. The same compound gave a logD in data set [3] of -0.34. It took 200 nM to reach a half-maximal effect in the data set filed under Oryctolagus cuniculus (EC50).

As for `CN(C)CCc1c[nH]c2ccc(Cn3ccnn3)cc12`, the IC50 on 5-HT2C receptors [8] is 6310 nM. In the data set filed under Oryctolagus cuniculus, this compound had an EC50 of 1000 nM.

With `CN(C)CCc1c[nH]c2ccc(Cc3ncnn3C)cc12`, the IC50 in data set [1] is 10000 nM; at 5-HT2C receptors [2] it was 3980 nM. In data set [3], this compound registered a logD of -0.75. The compound further showed an EC50 in the data set filed under Oryctolagus cuniculus of 631 nM.

(Values after ChEMBL document CHEMBL1128368, “Synthesis and serotonergic activity of N,N-dimethyl-2-[5-(1,2,4-triazol-1-ylmethyl)-1H-indol-3-yl]ethylamine and analogues: potent agonists for 5-HT1D receptors” (J Med Chem, 1995).)
